According to patent US10286038B2, “Lysosome membrane protein 2 (LIMP-2) based peptides and related uses” (Northwestern University, priority 2016, dated 2019):

How the values were obtained:
[1] = molecular target: T1, recombinant GC (Cerezyme) (Homo sapiens, UniProt P04062, R534H); experiment: recombinant GC activity assay; assay type: biochemical; settings: tenfold molar excess of peptide, acid pH, relative to buffer control
T1 construct: purchased Genzyme Therapeutics, Boston, USA
T1 sequence (P04062 40-536 R534H): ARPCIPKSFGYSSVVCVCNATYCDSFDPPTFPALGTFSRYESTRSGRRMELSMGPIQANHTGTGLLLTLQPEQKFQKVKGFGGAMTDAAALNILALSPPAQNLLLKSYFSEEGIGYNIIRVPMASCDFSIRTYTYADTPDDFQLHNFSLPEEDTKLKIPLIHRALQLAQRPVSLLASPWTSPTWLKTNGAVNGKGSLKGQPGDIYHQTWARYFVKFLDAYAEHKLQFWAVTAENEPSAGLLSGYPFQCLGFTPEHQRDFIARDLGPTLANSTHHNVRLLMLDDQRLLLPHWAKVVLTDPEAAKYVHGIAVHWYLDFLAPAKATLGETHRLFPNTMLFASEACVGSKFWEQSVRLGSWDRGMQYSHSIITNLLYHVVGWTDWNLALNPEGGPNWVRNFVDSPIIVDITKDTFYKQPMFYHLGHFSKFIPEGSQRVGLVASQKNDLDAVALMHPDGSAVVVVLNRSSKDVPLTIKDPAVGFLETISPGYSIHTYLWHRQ
Protocol: Expression plasmids of LIMP-2 and human GC constructs were generated as described previously (1). For Western blotting nitrocellulose or PVDF membranes were used. EndoH/PNGaseF digests were performed according to manufacturer's instructions (New England Biolabs, Ipswich, USA). For co-immunoprecipitation experiments magnetic agarose G beads (Thermo Fisher Scientific, Waltham, USA) were utilized. Immunofluorescence studies were performed in cells as previously described (1, 3). Cellular co-localization of two proteins was determined by the Pearson's Index (35). Enzyme activity assays of cell lysates or recombinant protein were measured at acid pH using absorbent and fluorescent artificial substrates. For peptide studies, peptides were N-terminally tagged with biotin. If not stated otherwise, recombinant enzyme was incubated with a tenfold higher molarity of peptides. Conditions for pulldown experiments were kept at neutral pH. Protein modelling, molecular analyses, graphics and animations were performed with the UCSF Chimera package.
(§1) To determine the enzymatic activity of the recombinant enzymes, lyophilized enzymes were reconstituted in the NaPi buffer described above. The lyophilized samples of wild-type GC (Cerezyme®) and the custom-made recombinant N307S mutant enzyme contain 0.01% polysorbate 80 (Tween 80) (see prescription information for Cerezyme® at the website for Cerezyme®). As indicated in our experiments, the concentration of the detergent is sufficient to support active GC enzyme and to perform the in vitro GC activity assays without adding further detergents to the reaction mix. For enzyme activity assays of recombinant proteins, 0.1-0.2 nmol of GC (Cerezyme®; N370S) and LAMAN were used in the absence or presence of 10× the molar amount of LIMP-2-derived peptides (Table 1) or LIMP-2 ectodomain (1-2 nmol) (Table 3).
(§2) All activity assays were performed at acid pH.

[2] = system: α-synuclein in H4 cells stably overexpressing α-synuclein; settings: doxycycline, 74 hrs post incubation, compared to 3×D control peptide
Protocol: For Western blotting 20-40 μg of protein was loaded on a 10% Tris-SDS (made in house) or 4-12% Bis-Tris/NuPAGE Novex gel system (Thermo Fisher Scientific), subjected to electrophoresis, and blotted on nitrocellulose or PVDF membranes [2 h at 4° C. and 0.85 ampere (A) constant]. Membranes were blocked in 5% (wt/vol) milk Tris-buffered saline (TBS-T, pH 7.4, 0.1% Tween-20), and primary antibodies were incubated overnight (for more details on antibody dilutions see Table 4). PVDF membranes for α-synuclein detection were postfixed in 0.4% paraformaldehyde (PFA) (Polysciences Inc.) for 20 min after blotting. Signals were normalized to the respective loading controls [actin, neuronal-specific enolase (NSE), or GAPDH] […] Primary antibodies were incubated overnight at 4° C. After three washing steps in TBS-T the membranes were incubated for 1 h with the respective secondary antibody at room temperature. After the membrane was washed again three times with TBS-T, the signal of the antibody was detected using a chemiluminescence detection system (LAS4000; GE Healthcare Life Sciences) or by scanning on an infrared imager (Odyssey; LI-COR Biosciences).
The α-synuclein turn-over rate in the presence of the LIMP-2-derived peptides was assessed in human neuroglioma cells (H4), stably overexpressing α-synuclein. […]

[3] = system: endogenous and overexpressed GC in cell lysates; settings: after incubation with peptide
Protocol: The artificial substrates were dissolved in sodium citrate buffer (0.2 M Na-citrate, 0.4% BSA, pH 4.6). All activity assays were performed at acid pH.
Cell lysate protein (20-200 μg) or recombinant protein (0.2 nmol GC/N370S or LAMAN) was incubated with 100 μL of 10 mM artificial absorbent substrate (4-nitrophenyl β-D-glucopyranoside or 4-nitrophenyl-N-acetyl-β-D-glucosaminide). The samples were incubated at 37° C. for 2 h to measure GC activity or for 5 h to assess LAMAN activity. The reaction was stopped by applying 500-1,000 μL of stop solution (0.4 M glycine, pH 10.4), and the absorbance was measured in a clear 96-well plate at 405 nm in a plate reader (Synergy HT; BioTek). Enzyme activities of cellular lysates were normalized to protein concentration (expressed in milliunits per milligram) and are shown relative to buffer control. Enzyme activities of recombinant proteins are shown as milliunits per milligram or are stated relative to buffer control.

[4] = molecular target: T2, recombinant α-mannosidase (LAMAN) (Homo sapiens, UniProt O00754); experiment: recombinant LAMAN activity assay; assay type: biochemical; settings: 1×-10× molar excess, acid pH
T2 construct: purchased Zymenex, Hillerod, DK
T2 sequence (O00754 50-1011): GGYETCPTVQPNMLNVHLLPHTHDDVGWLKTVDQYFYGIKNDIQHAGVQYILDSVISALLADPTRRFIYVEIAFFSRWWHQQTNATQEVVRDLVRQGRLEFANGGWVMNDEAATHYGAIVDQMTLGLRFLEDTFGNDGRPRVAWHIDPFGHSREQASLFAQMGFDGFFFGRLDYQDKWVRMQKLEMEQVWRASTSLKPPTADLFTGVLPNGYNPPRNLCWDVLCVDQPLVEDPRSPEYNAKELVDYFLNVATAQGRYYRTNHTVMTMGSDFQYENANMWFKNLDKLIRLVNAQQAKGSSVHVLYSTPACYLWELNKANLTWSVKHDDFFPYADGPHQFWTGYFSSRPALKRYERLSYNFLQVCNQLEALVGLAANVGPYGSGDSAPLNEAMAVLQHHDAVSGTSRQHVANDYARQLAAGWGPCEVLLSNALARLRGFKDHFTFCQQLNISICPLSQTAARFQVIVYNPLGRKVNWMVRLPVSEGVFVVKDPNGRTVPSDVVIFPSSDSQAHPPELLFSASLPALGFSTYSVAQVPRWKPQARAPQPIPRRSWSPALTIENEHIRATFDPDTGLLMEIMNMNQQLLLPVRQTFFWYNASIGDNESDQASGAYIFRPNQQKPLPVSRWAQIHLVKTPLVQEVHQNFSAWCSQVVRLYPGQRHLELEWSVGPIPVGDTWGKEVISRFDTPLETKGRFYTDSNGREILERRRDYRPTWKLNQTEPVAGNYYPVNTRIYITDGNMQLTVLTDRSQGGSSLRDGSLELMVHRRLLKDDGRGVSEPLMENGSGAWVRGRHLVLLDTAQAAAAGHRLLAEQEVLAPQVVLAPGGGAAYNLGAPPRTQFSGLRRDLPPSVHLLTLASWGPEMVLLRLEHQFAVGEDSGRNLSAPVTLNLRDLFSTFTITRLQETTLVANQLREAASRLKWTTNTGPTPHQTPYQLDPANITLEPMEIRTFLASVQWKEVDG
Source text: as §1, §2

Row | Substance | increase of recombinant GC enzyme activity [1] | α-synuclein levels [2] | increase of recombinant GC enzyme activity ([1]; listed as LIMP-2-derived helix 5 peptide) | enzymatic activity of endogenous and overexpressed GC in cell lysates [3] | effect on enzymatic activity of recombinant LAMAN [4]
1 | Biotin-Ttds-KFERQLREIIEAMLKAYQQKLFVTHTVDEYGRKKRRQRRR [helix 5 TAT-peptide] | comparable effect | significant reduction | – | – | –
2 | Biotin-Ttds-LREIIEAMLKAYQQKLFVTHTVDE [helix 5 peptide] | five times | – | five-fold increase | could also be increased | No effect
